{"source": "patent US10858316B2", "about": "“Small molecule inhibitors of the MCL-1 oncoprotein and uses thereof” (University of Maryland, Baltimore, priority 2015, dated 2020)", "key": {"Mcl-1 [1]": {"target": "Mcl-1 (Homo sapiens (Human), UniProt Q07820)", "sequence (Q07820 172-327)": "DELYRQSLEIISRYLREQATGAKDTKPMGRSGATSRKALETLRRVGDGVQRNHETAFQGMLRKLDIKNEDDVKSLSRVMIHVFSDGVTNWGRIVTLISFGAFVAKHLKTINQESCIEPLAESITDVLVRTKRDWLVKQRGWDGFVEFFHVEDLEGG", "experiment": "Fluorescence polarization competition assay (FPCA), Mcl-1 / FITC-Bak BH3 peptide", "assay_type": "binding", "details": "for Mcl-1 Exp ΔG: ΔG=−RTlnKi from experimental Ki; for Ki: read-out: Mcl-1 Ki", "source_text": "(§1) The tagged protein was initially purified from the crude cell lysate by immobilized metal affinity chromatography (IMAC) chromatography (GE Healthcare Life Sciences), and after dialysis to remove the imidazole the affinity tag was cleaved using PreScission Protease (GE Healthcare Life Sciences). A Sephacryl S-200 size exclusion column was used as a final purification step before the protein was concentrated with a 10,000 MWCO centifugal filter concentrator (Millipore).\n(§2) Fluorescence polarization experiments were conducted using a BMG PHERAstar FS multimode microplate reader equipped with two PMTs for simultaneous measurements of the perpendicular and parallel fluorescence emission. The assays were performed in black polypropylene 384-well microplate (Costar) with a final volume of 20 microliter. […] Regression analysis was carried out using Origin (OriginLab, Northampton, Mass.) to fit the data to the Hill equation (1) to determine the initial binding affinity (KD) and the IC50 in the FPCA. For the fluorescence polarization competition titrations, an equation derived by Nikolovska-Coleska et al. was used to calculate the Ki from the IC50 data.\n(§3) The target molecules were assayed for their abilities to disrupt the Mcl-1-Bak-BH3 PPI in a fluorescence polarization competition (FPC) assay with Mcl-1 and FITC-labeled Bak-BH3 peptide. Further details on the FPC assay can be found in the Supporting Information."}, "Mcl-1 [2]": {"system": "Mcl-1", "experiment": "Fluorescence polarization competition assay (FPCA), Mcl-1 / FITC-Bak BH3 peptide", "assay_type": "binding, human", "details": "for Exp. ΔG diff.: between Mcl-1 and Bcl-xL, positive favors Mcl-1; for Selectivity, Ki (Bcl-xL) divided by Ki (Mcl-1): Mcl-1 over Bcl-xL", "source_text": "as §1, §2, §3"}, "Bcl-xL": {"target": "Bcl-xL (Homo sapiens (Human), UniProt Q07817)", "sequence (Q07817 whole entry)": "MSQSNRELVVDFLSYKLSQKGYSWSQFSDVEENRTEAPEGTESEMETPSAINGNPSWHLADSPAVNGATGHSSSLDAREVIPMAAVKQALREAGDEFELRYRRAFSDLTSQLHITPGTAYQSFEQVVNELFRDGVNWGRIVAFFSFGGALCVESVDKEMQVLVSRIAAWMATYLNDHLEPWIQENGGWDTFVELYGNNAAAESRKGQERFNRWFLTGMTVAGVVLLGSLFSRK", "experiment": "Fluorescence polarization competition assay, Bcl-xL", "assay_type": "binding", "details": "for Bcl-xL Exp ΔG: ΔG from experimental Ki; for Ki: Ki from IC50 by Nikolovska-Coleska equation, NA = no activity, read-out: Bcl-xL Ki", "method": "as §2"}, "[3]": {"details": "FPCA with FITC-Bak, Ki from IC50 by Nikolovska-Coleska equation"}}, "note": "Where two headings read alike, the source gives them in different places.", "data": [{"smiles": "O=C(O)c1cc(S(=O)(=O)Nc2ccc(Oc3cccc(Br)c3)cc2)c2ccccc2c1O", "note": "[3be; SF-5-303]", "values": [{"measurement": "Mcl-1 Exp ΔG", "setting": "Mcl-1 [1]", "result": -9.47, "unit": "kcal/mol"}, {"measurement": "Exp. ΔG diff.", "setting": "Mcl-1 [2]", "result": 0.58, "unit": "kcal/mol"}, {"measurement": "Bcl-xL Exp ΔG", "setting": "Bcl-xL", "result": -8.89, "unit": "kcal/mol"}]}, {"smiles": "O=C(O)c1cc(S(=O)(=O)Nc2ccc([N+](=O)[O-])cc2)c2ccccc2c1O", "note": "[Compound 3ac, 1-Hydroxy-4-(N-(4-nitrophenyl)sulfamoyl)-2-naphthoic Acid]", "values": [{"measurement": "Ki", "setting": "Mcl-1 [1]; [3]", "result": "4.49 ± 1.2", "unit": "µM"}, {"measurement": "Selectivity, Ki (Bcl-xL) divided by Ki (Mcl-1)", "setting": "Mcl-1 [2]", "result": 5.2}, {"measurement": "Ki", "setting": "Bcl-xL", "result": "23.3 ± 2.5", "unit": "µM"}]}, {"smiles": "O=C(O)c1cc(S(=O)(=O)Nc2ccc(Oc3cccc4ccccc34)cc2)c2ccccc2c1O", "note": "[3bd; SF-5-300]", "values": [{"measurement": "Mcl-1 Exp ΔG", "setting": "Mcl-1 [1]", "result": -9.66, "unit": "kcal/mol"}, {"measurement": "Exp. ΔG diff.", "setting": "Mcl-1 [2]", "result": 0.58, "unit": "kcal/mol"}, {"measurement": "Bcl-xL Exp ΔG", "setting": "Bcl-xL", "result": -9.08, "unit": "kcal/mol"}]}, {"smiles": "CC(C)CN(c1ccc(O)c(C(=O)O)c1)S(=O)(=O)c1ccccc1", "note": "[JY-5-296 18ba]", "values": [{"measurement": "Ki", "setting": "Mcl-1 [1]; [3]", "result": "46.5 ± 9.82", "unit": "µM"}, {"measurement": "Ki", "setting": "Bcl-xL", "result": "49.3 ± 5.03", "unit": "µM"}]}, {"smiles": "CC(C)CN(c1ccc(O)c(C(=O)O)c1)S(=O)(=O)c1ccc2ccccc2c1", "note": "[jy-5-299 18bb]", "values": [{"measurement": "Ki", "setting": "Mcl-1 [1]; [3]", "result": "7.51 ± 0.84", "unit": "µM"}, {"measurement": "Ki", "setting": "Bcl-xL", "result": "44.6 ± 5.93", "unit": "µM"}]}, {"smiles": "Cc1cc(Oc2ccc(N(C3CCCC3)S(=O)(=O)c3cc(C(=O)O)c(O)c4ccccc34)cc2)cc(C)c1Cl", "note": "[Compound 3bk, 4-(N-(4-(4-Chloro-3,5-dimethylphenoxy)phenyl)-N-cyclopentylsulfamoyl)-1-hydroxy-2-naphthoic Acid]", "values": [{"measurement": "Ki", "setting": "Mcl-1 [1]; FPCA", "result": 0.033, "unit": "µM"}, {"measurement": "Selectivity, Ki (Bcl-xL) divided by Ki (Mcl-1)", "setting": "Mcl-1 [2]", "result": 8.8}, {"measurement": "Ki", "setting": "Bcl-xL", "result": "0.29 ± 0.05", "unit": "µM"}]}, {"smiles": "O=C(O)c1cc(S(=O)(=O)NCc2ccc(Cl)cc2)c2ccccc2c1O", "note": "[3f; SF-5-264]", "values": [{"measurement": "Mcl-1 Exp ΔG", "setting": "Mcl-1 [1]", "result": -6.38, "unit": "kcal/mol"}, {"measurement": "Exp. ΔG diff.", "setting": "Mcl-1 [2]", "result": 1.65, "unit": "kcal/mol"}, {"measurement": "Bcl-xL Exp ΔG", "setting": "Bcl-xL", "result": -4.73, "unit": "kcal/mol"}]}, {"smiles": "Cc1cc(C)cc(Oc2ccc(NS(=O)(=O)c3cc(C(=O)O)c(O)c4ccccc34)cc2)c1", "note": "[3bf; SF-5-306]", "values": [{"measurement": "Mcl-1 Exp ΔG", "setting": "Mcl-1 [1]", "result": -8.93, "unit": "kcal/mol"}, {"measurement": "Exp. ΔG diff.", "setting": "Mcl-1 [2]", "result": 0.19, "unit": "kcal/mol"}, {"measurement": "Bcl-xL Exp ΔG", "setting": "Bcl-xL", "result": -8.74, "unit": "kcal/mol"}]}, {"smiles": "O=C(O)c1cc(S(=O)(=O)NCc2ccc(Cl)cc2)c2ccccc2c1O", "note": "[Compound 3f, 4-(N-(4-Chlorobenzyl)sulfamoyl)-1-hydroxy-2-naphthoic Acid]", "values": [{"measurement": "Ki", "setting": "Mcl-1 [1]; [3]", "result": "21 ± 3.9", "unit": "µM"}, {"measurement": "Selectivity, Ki (Bcl-xL) divided by Ki (Mcl-1)", "setting": "Mcl-1 [2]", "result": 16}, {"measurement": "Ki", "setting": "Bcl-xL", "result": "338 ± 203", "unit": "µM"}]}, {"smiles": "O=C(O)c1cc(S(=O)(=O)Nc2ccc(Oc3cccc4ccccc34)cc2)c2ccccc2c1O", "note": "[Compound 3bd, 1-Hydroxy-4-(N-(4-(naphthalen-1-yloxy)phenyl)sulfamoyl)-2-naphthoic Acid]", "values": [{"measurement": "Ki", "setting": "Mcl-1 [1]; [3]", "result": 0.082, "unit": "µM"}, {"measurement": "Selectivity, Ki (Bcl-xL) divided by Ki (Mcl-1)", "setting": "Mcl-1 [2]", "result": 3.7}, {"measurement": "Ki", "setting": "Bcl-xL", "result": "0.22 ± 0.06", "unit": "µM"}]}, {"smiles": "O=C(O)c1cc(S(=O)(=O)NCC2CCCCC2)c2ccccc2c1O", "note": "[Compound 3g, 4-(N-(Cyclohexylmethyl)sulfamoyl)-1-hydroxy-2-naphthoic Acid]", "values": [{"measurement": "Ki", "setting": "Mcl-1 [1]; [3]", "result": "7.31 ± 1.42", "unit": "µM"}, {"measurement": "Selectivity, Ki (Bcl-xL) divided by Ki (Mcl-1)", "setting": "Mcl-1 [2]", "result": 11}, {"measurement": "Ki", "setting": "Bcl-xL", "result": "77.6 ± 14.3", "unit": "µM"}]}, {"smiles": "O=C(O)c1cc(S(=O)(=O)Nc2ccc(Br)cc2Br)c2ccccc2c1O", "note": "[3o; SF-5-290]", "values": [{"measurement": "Mcl-1 Exp ΔG", "setting": "Mcl-1 [1]", "result": -8.69, "unit": "kcal/mol"}, {"measurement": "Exp. ΔG diff.", "setting": "Mcl-1 [2]", "result": 1.01, "unit": "kcal/mol"}, {"measurement": "Bcl-xL Exp ΔG", "setting": "Bcl-xL", "result": -7.68, "unit": "kcal/mol"}]}, {"smiles": "Cc1cc(Oc2ccc(N(C3CCCC3)S(=O)(=O)c3cc(C(=O)O)c(O)c4ccccc34)cc2)cc(C)c1Cl", "note": "[3bk; JY-5-379]", "values": [{"measurement": "Mcl-1 Exp ΔG", "setting": "Mcl-1 [1]", "result": -10.20, "unit": "kcal/mol"}, {"measurement": "Exp. ΔG diff.", "setting": "Mcl-1 [2]", "result": 1.29, "unit": "kcal/mol"}, {"measurement": "Bcl-xL Exp ΔG", "setting": "Bcl-xL", "result": -8.91, "unit": "kcal/mol"}]}, {"smiles": "O=C(O)c1cc(S(=O)(=O)Nc2ccc(Br)cc2)c2ccccc2c1O", "note": "[Compound 3a, 4-(N-(4-bromophenyl)sulfamoyl)-1-hydroxy-2-naphthoic Acid]", "values": [{"measurement": "Ki", "setting": "Mcl-1 [1]; [3]", "result": 2.76, "unit": "µM"}, {"measurement": "IC50", "setting": "Mcl-1 [1]; FPCA, read-out: IC50 disruption of Mcl-1-Bak-BH3 PPI", "result": 10.9, "unit": "µM"}, {"measurement": "Selectivity, Ki (Bcl-xL) divided by Ki (Mcl-1)", "setting": "Mcl-1 [2]", "result": 19}, {"measurement": "Ki", "setting": "Bcl-xL", "result": "51.4 ± 31.3", "unit": "µM"}]}, {"smiles": "Cc1ccc(Oc2ccc(NS(=O)(=O)c3cc(C(=O)O)c(O)c4ccccc34)cc2)cc1", "note": "[3bc; SF-5-301]", "values": [{"measurement": "Mcl-1 Exp ΔG", "setting": "Mcl-1 [1]", "result": -8.83, "unit": "kcal/mol"}, {"measurement": "Exp. ΔG diff.", "setting": "Mcl-1 [2]", "result": 0.55, "unit": "kcal/mol"}, {"measurement": "Bcl-xL Exp ΔG", "setting": "Bcl-xL", "result": -8.28, "unit": "kcal/mol"}]}, {"smiles": "Cc1cc(C)cc(Oc2ccc(NS(=O)(=O)c3cc(C(=O)O)c(O)c4ccccc34)cc2)c1", "note": "[Compound 3bf, 4-(N-(4-(3,5-Dimethylphenoxy)phenyl)sulfamoyl)-1-hydroxy-2-naphthoic Acid]", "values": [{"measurement": "Ki", "setting": "Mcl-1 [1]; [3]", "result": 0.284, "unit": "µM"}, {"measurement": "Selectivity, Ki (Bcl-xL) divided by Ki (Mcl-1)", "setting": "Mcl-1 [2]", "result": 1.4}, {"measurement": "Ki", "setting": "Bcl-xL", "result": "0.39 ± 0.1", "unit": "µM"}]}, {"smiles": "Cc1cc(Oc2ccc(S(=O)(=O)N(Cc3ccccc3)c3ccc(O)c(C(=O)O)c3)cc2)cc(C)c1Cl", "note": "[LC-5-129 29]", "values": [{"measurement": "Ki", "setting": "Mcl-1 [1]; [3]", "result": "1.4 ± 0.47", "unit": "µM"}, {"measurement": "Ki", "setting": "Bcl-xL", "result": "1.82 ± 0.234", "unit": "µM"}]}, {"smiles": "CC(C)CN(c1ccc(O)c(C(=O)O)c1)S(=O)(=O)c1ccc(-c2ccccc2)cc1", "note": "[JY-5-300 18bc]", "values": [{"measurement": "Ki", "setting": "Mcl-1 [1]; [3]", "result": "8.7 ± 2.05", "unit": "µM"}, {"measurement": "Ki", "setting": "Bcl-xL", "result": "13.9 ± 3.36", "unit": "µM"}]}]}
